Assay results reported in patent publication US20240189387A1, “DOSING REGIMENS FOR HEMATOPOIETIC STEM CELL MOBILIZATION FOR STEM CELL TRANSPLANTS IN MULTIPLE MYELOMA PATIENTS” (Ensoma, Inc., priority 2021, published 2024).
Like-named read-outs stand apart in the source and are kept apart here.

Columns and labels:
CD34+ cells [1] = assay: Phase 1 trial: mobilization of CD34+ cells into peripheral blood (multicolor flow cytometry); settings: for % ≥20/μL peak CD34+ / Peak CD34+ (#/μL) Median (range): Day 1
[2] = Phase 1 trial: treatment emergent adverse events; settings: Part B, combination n = 38; plerixafor n = 14
Text: FIG. 1A depicts the treatments provided to patient cohorts enrolled in Part A and Part B of a Phase 1 clinical trial as well as measurable endpoints.
Patients were monitored for emergent adverse events.

CD34+ cells [3] = settings: historical plerixafor alone data, Devine et al., Blood 2008; cited from earlier work
[4] = tested on: graft cell subsets (T cells, B cells, NK cells); settings: cited from earlier work
CD34+CD90+CD45RA− cells = assay: Phase 1 trial: mobilization of CD34+CD90+CD45RA− cells into peripheral blood (flow cytometry); settings: plerixafor alone
[5] = tested on: hematopoietic stem and progenitor cells; settings: U.S. Pat. No. 6,447,766; cited from earlier work
[6] = Part B, plerixafor (pooled placebo + plerixafor), listed as plerixafor
[7] = Part C, 8 patients on combination (0.03 or […]), plerixafor alone
[8] = Part C, plerixafor (pooled placebo + plerixafor), listed as plerixafor
[9] = Chen et al., 2019, 2 LP plerixafor, 1 LP G-CSF
[10] = Devine et al, 2008, yield of 1 LP

## c1cc(CN2CCCNCCNCCCNCC2)ccc1CN1CCCNCCNCCCNCC1 [Plerixafor, 1,1′-[1,4-phenylenebis(methylene)]-bis-1,4,8,11-tetra-azacyclotetradecane]
CD34+ cells [1]; Part B, plerixafor
  % ≥40/μL peak CD34+: 21%
CD34+ cells [1]; Part B, plerixafor (pooled placebo + plerixafor)
  % ≥20/μL peak CD34+: 64%
CD34+ cells [1]; [6]
  % ≥20/μL peak CD34+: 64%
  Peak CD34+ (#/μL) Median (range): 26 #/μL
CD34+ cells [1]; [7]
  patients achieving peak CD34+ count of at least 20 cells per microliter: none
  patients achieving peak CD34+ count of at least 40 cells per microliter: none
CD34+ cells [1]; Part C, plerixafor (pooled placebo + plerixafor)
  % ≥20/μL peak CD34+: 0%
CD34+ cells [1]; [8]
  % ≥20/μL peak CD34+: 0%
  Peak CD34+ (#/μL) Median (range): 18 #/μL
CD34+ cells [1]; Part C, plerixafor, first day
  % ≥40/μL peak CD34+: 0%
CD34+ cells [1]; Part C, pooled placebo + plerixafor, Day 2
  Peak CD34+ (#/μL) Median: 17 #/μL
CD34+ cells [1]; Pooled B + C, plerixafor
  % ≥40/μL peak CD34+: 14%
  % ≥20/μL peak CD34+: 50%
CD34+ cells [1]; Pooled B + C, plerixafor, listed as plerixafor
  % ≥20/μL peak CD34+: 56%
CD34+ cells [1]; plerixafor alone
  patients with peak CD34+ ≥20 cells/μL (%): 50% (7/14)
  patients with peak CD34+ ≥40 cells/μL (%): 14% (2/14)
[2]
  Abdominal discomfort/pain: 4 (28.6) n (%)
  Back pain/Musculoskeletal pain: 2 (14.3) n (%)
  Diarrhea: 5 (35.7) n (%)
  Dizziness: 1 (7.1) n (%)
  Dysgeusia: 2 (14.3) n (%)
  Headache: 1 (7.1) n (%)
  Nausea: 2 (14.3) n (%)
  Vomiting: 1 (7.1) n (%)
CD34+ cells [3]
  patients with peak CD34+ ≥20 cells/μL (%): 28% (7/25)
  patients with peak CD34+ ≥40 cells/μL (%): 4% (1/25)
[4]; Chen et al., 2019, 2 LP for plerixafor (N = 50+), 1 LP for G-CSF (N = 112+)
  graft CD34+ Median (range): 4.7 (0.9-9.6) ×10^6/kg
[4]; [9]
  graft CD3+ Median (range): 6.0 (2.7-13.0) ×10^8/kg
  graft CD4+ Median (range): 3.6 (2.0-9.4) ×10^8/kg
  graft CD8+ Median (range): 2.2 (0.5-5.0) ×10^8/kg
  graft CD19+ Median (range): 1.5 (0.2-7.4) ×10^8/kg
  graft CD56+ Median (range): 0.4 (0.0-1.1) ×10^8/kg
[4]; [10]
  graft CD3+ Median (range): 4.6 (1.5-7.8) ×10^8/kg
  graft CD4+ Median (range): 3.2 (1-5.7) ×10^8/kg
  graft CD8+ Median (range): 1.3 (0.4-3.4) ×10^8/kg
  graft CD19+ Median (range): 1.0 (0.2-2.4) ×10^8/kg
  graft CD56+ Median (range): 0.3 (0.1-1.0) ×10^8/kg
[4]; Devine et al, 2008, yield of 1 LP, plerixafor N = 24, G-CSF N = 8
  graft CD34+ Median (range): 2.9 (1.2-6.3) ×10^6/kg
CD34+CD90+CD45RA− cells
  median peak CD34+CD90+CD45RA− cells: 8 cells/μL

## Gro-β T N65D: SEQ ID NO: 4; Gro-β T with aspartic acid in place of asparagine at position 65
[5]
  potency (hematopoietic stem and progenitor cell mobilization) relative to Gro-β T: substantially greater than that of Gro-β T
